According to US10851097B2, “4,5,6,7-tetrahydro-1H-imidazo[4,5-c]pyridine and 1,4,5,6,7,8-hexahydroimidazo[4,5-d]azepine derivatives as janus kinase inhibitors” (Topivert Pharma Limited, priority 2015, dated 2020):

Experiments:
TYK2 = molecular target: T1, TYK2 (Homo sapiens, UniProt P29597); assay: KINOMEscan enzyme binding assay (DiscoveRx), TYK2; settings: read-out: Dissociation Constant TYK2
T1 construct: purchased DiscoveRx (LeadHunter Discover Services, KINOMEscan)
T1 sequence (P29597 888-1187 limits assumed): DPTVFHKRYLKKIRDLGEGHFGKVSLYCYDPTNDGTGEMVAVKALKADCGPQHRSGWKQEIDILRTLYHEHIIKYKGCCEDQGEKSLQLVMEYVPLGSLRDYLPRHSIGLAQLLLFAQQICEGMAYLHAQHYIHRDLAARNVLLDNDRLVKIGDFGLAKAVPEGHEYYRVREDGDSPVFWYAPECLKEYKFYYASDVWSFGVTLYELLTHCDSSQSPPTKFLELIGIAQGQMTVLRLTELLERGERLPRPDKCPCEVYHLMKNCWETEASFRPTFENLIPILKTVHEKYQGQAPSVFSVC
Description: (§1) These assays may be conducted by DiscoveRx (formerly Ambit; San Diego, Calif.). The percentage inhibition produced by incubation with a test compound may be calculated relative to the non-inhibited control.

JAK1 = molecular target: T2, JAK1 (Homo sapiens, UniProt P23458); assay: KINOMEscan enzyme binding assay (DiscoveRx), JAK1; settings: read-out: Dissociation Constant JAK1
T2 construct: purchased DiscoveRx (LeadHunter Discover Services, KINOMEscan)
T2 sequence (P23458 866-1154 limits assumed): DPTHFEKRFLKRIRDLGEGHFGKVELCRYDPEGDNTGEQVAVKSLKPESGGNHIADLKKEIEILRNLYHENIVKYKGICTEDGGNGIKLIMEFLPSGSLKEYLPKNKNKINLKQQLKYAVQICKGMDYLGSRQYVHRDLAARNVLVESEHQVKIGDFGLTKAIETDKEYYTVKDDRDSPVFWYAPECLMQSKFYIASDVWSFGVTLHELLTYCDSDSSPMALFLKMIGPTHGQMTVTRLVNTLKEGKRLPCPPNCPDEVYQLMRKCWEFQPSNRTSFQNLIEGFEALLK
Description: as §1

CCc1cc(O)c(F)cc1-c1ccc2c(-c3nc4c([nH]3)CCN(C(=O)c3cnc(N(C)CCN5CCCC5=O)cn3)C4)n[nH]c2c1 [Example 2(k), 1-(2-((5-(2-(6-(2-ethyl-5-fluoro-4-hydroxyphenyl)-1H-indazol-3-yl)-4,5,6,7-tetrahydro-1H-imidazo[4,5-c]pyridine-5-carbonyl)pyrazin-2-yl)(methyl)amino)ethyl)pyrrolidin-2-one]
Kd (TYK2): 130 pM | Kd (JAK1): 1000 pM
